Assay results reported in US20110269790A1, “NOVEL THIENOPYRIDINES AS PHARMACOLOGICALLY ACTIVE AGENTS” (priority 2009, published 2011).
In brackets after ≈: the same amount, converted by molar mass. Several values for one entry are separate records, joined by “and”; a condition that tells them apart may be missing. Identical values can stand only once. Like-named read-outs stand apart in the source and are kept apart here.

Legend:
A549 (Lung cancer) = assay: MTT assay, A549; assay type: cell-based; conditions: Homo sapiens, read-out: A549 IC50
Protocol: (§1) A431 (Skin cancer), Colo-205 (Colon cancer), A549 (Lung cancer) cell lines were obtained from National Center for Cell science (NCCS), Pune, India. DMEM (Dulbeccos Modified Eagles Medium), MTT [3-(4,5-dimethylthiazol-2-yl)-2,5-diphenyl tetrazolium bromide], Trypsin, EDTA were purchased from Sigma Chemicals Co (St. Louis, Mo.), Fetal bovine serum were purchased from Arrow labs, 96 well flat bottom tissue culture plates were purchased from Tarson.
(§2) A431, Colo-205, A549 cell lines were grown as adherent cells in DMEM media supplemented with 10% fetal bovine serum, 100 μg/ml penicillin, 200 μg/ml streptomycin, 2 mM L-glutamine, and culture was maintained in a humidified atmosphere with 5% CO2. Stock solution of 10 mg/ml was prepared for test molecules in DMSO. From the stock, various dilutions were made with sterile water to get required concentration. A431, Colo-205, A549 cell lines were seeded at a density of 1×10^4 cells (cell number was determined by Trypan blue exclusion dye method) per each well in 100 μl of DMEM supplemented with 10% FBS. 12 hrs after seeding, above media was replaced with fresh DMEM supplemented with 10% FBS. Then, 10 μl sample from above stock solutions were added to each well in triplicates which gives final concentration of 100, 50, 25, 10 μg/well. The above cells were incubated for 48 hrs at 37° C. with 5% CO2. After 48 hrs incubation the above media was replaced with 100 μl of fresh DMEM with out FBS and to this 10 μl of MTT (5 mg dissolved in 1 ml of PBS) was added and incubated for 3 hrs at 37° C. with 5% CO2. After 3 hrs of incubation, the above media was removed with multi channel pipette, then 200 μl of DMSO was added to each well and incubated at 37° C. for 15 min. Finally, the plate was read at 570 nm using spectrophotometer (Spectra Max, Molecular devices).

Wistar rats = assay: Carrageenan induced paw edema model; assay type: in vivo, rat; conditions: for change in vivo at 100 mg/kg / inhibition in vivo at 100 mg/kg: Rattus norvegicus; for change in vivo at 100 mg/kg: read-out: % Increase in Paw Volume; for inhibition in vivo at 100 mg/kg: read-out: % Inhibition (paw volume); for % Inhibition / Percentage Swelling (50 mg/kg) / Percentage Swelling (100 mg/kg) / Percentage Swelling (200 mg/kg): dose response study, n=6
Protocol: Male Albino Wistar rats of 150-180 grams were used for the experiments.
Anti-inflammatory activity of test compounds was evaluated in Wistar rats employing the method of Winter et al (1963) and Diwan et al (1989). Male Wistar rats were used for the study. […] The different test compounds were administered to the animals in the test group at the dose of 100 mg/kg, by oral route. Animals in the standard group received Indomethacin at the dose of 10 mg/kg, by oral route. All test and standard compounds were administered as 1% gum acacia suspension. Rats in the control group received the vehicle solution without drugs. One hour after test drugs administration, rats in all the groups were challenged with 0.1 ml of 1% Carrageenan in the sub plantar region of right hind paw. A zero hour paw volume was measured for all the rats using digital plethysmometer (Ugo Basile, Italy) before the administration of carrageenan for all groups. Paw volumes were again measured 3 hrs after the challenge of Carrageenan. The percent inhibition of paw volume for each rat in treated groups was calculated by comparing with mean paw volume of control group and expressed as mean (±SE) percent inhibition of paw volume for each test. In a preliminary study the compounds that have shown good activity were evaluated for dose response study by using above procedure.

Colo-205 (Colon cancer) = assay: MTT assay, Colo-205; assay type: cell-based; conditions: for IC50: Homo sapiens, read-out: Colo-205 IC50
Protocol: as §1, §2

[1] = test compounds 100 mg/kg oral, Indomethacin 10 mg/kg oral, 3 hrs after Carrageenan

| Structure (SMILES) | IC50 (A549 (Lung cancer); A549, MTT, 48 hrs) [µg/mL] | change in vivo at 100 mg/kg (Wistar rats; [1]) [%] | inhibition in vivo at 100 mg/kg (Wistar rats; [1]) [%] | IC50 (Colo-205 (Colon cancer); COLO 205, MTT, 48 hrs) [µg/mL] | % Inhibition (Wistar rats; 50 mg/kg oral) [%] | Percentage Swelling (50 mg/kg) (Wistar rats; 50 mg/kg oral) [%] | % Inhibition (Wistar rats; 100 mg/kg oral) [%] | Percentage Swelling (100 mg/kg) (Wistar rats; 100 mg/kg oral) [%] | % Inhibition (Wistar rats; 200 mg/kg oral) | Percentage Swelling (200 mg/kg) (Wistar rats; 200 mg/kg oral) [%] | % Inhibition (Wistar rats; 200 mg/kg oral, listed as B-16) [%] | Colo-205 IC50 (Colo-205 (Colon cancer); MTT, 48 hrs) | IC50 (A549 (Lung cancer); A549, 48 h) [µg/mL] | change in vivo at 100 mg/kg (Wistar rats; po, 3 h) [%] | inhibition in vivo at 100 mg/kg (Wistar rats; po, 3 h) [%] | IC50 (Colo-205 (Colon cancer); COLO 205, 48 h) [µg/mL] |
| --- | --- | --- | --- | --- | --- | --- | --- | --- | --- | --- | --- | --- | --- | --- | --- | --- |
| CC1CCc2c(nc3sc4c(c3c2N)CCCC4)C1 (stereo not shown) [BN-7, 8-Methyl-1,2,3,4,7,8,9,10-octahydrobenzo[4,5]thieno[2,3-b]quinolin-11-amine] | 49 (≈ 180 µM) | 113 ± 22.3 | 0.7 ± 0.7 | 70.7 (≈ 260 µM) | – | – | – | – | – | – | – | – | – | – | – | – |
| Nc1c2c(nc3sc4c(c13)CCC4)CCCCC2 [BN-16, 1,2,3,6,7,8,9,10-Octahydrocyclohepta[b]cyclopenta[4,5]thieno[3,2-e]pyridine-11-amine] | 39.8 (≈ 154 µM) | 61.1 ± 19.2 | 44.9 ± 5.86 | 123 (≈ 476 µM) | 20.47 ± 1.61 | 73.18 ± 2.41 | 44.90 ± 5.86 | 61.09 ± 5.86 | 56.0 ± 2.87% | 45.60 ± 5.30 | 57.53 | – | – | – | – | – |
| COc1ccc2c(c1)c(CC(=O)O)c(C)n2C(=O)c1ccc(Cl)cc1 [Indomethacin, reference compound] | – | 41.7 ± 9.97 | 50.1 ± 12.1 | – | – | – | – | – | – | – | – | – | – | – | – | – |
| Cc1sc2nc3c(c(N)c2c1C)CCCCC3 [BN-4, 2,3-dimethyl-6,7,8,9-tetrahydro-5H-cyclohepta[b]thieno[3,2-e]pyridin-4-amine] | 36.3 (≈ 147 µM) | 68.1 ± 3.41 | 41.8 ± 3.77 | – | 23.93 ± 2.96 | 73.27 ± 4.47 | 35.68 ± 3.77 | 64.42 ± 3.97 | 53.2% and 53.2 ± 3.03% | 44.23 ± 3.34 | – | No activity | – | – | – | – |
| Nc1c2c(nc3sc4c(c13)CCCC4)CCCCC2 [BN-8, 2,3,4,7,8,9,10,11-Octahydro-1H-benzo[4,5]thieno[2,3-b]cyclohepta [e]pyridin-12-amine] | – | – | – | – | – | – | – | – | – | – | – | – | 186 (≈ 683 µM) | 109 ± 4.87 | 1.2 ± 0.87 | 70.8 (≈ 260 µM) |
